This passage reports IC50 results from patent publication US20060252807A1, “Novel ortho-terphenyl inhibitors of p38 kinase and methods of treating inflammatory disorders” (Kalypsys, Inc., priority 2005, published 2006).

The term IC50 denotes the concentration needed to halve the response being measured.

In this assay the target is T1, active p38 alpha enzyme (Upstate Biotechnology) (Homo sapiens, UniProt Q16539).
T1 construct: purchased Upstate Biotechnology
T1 sequence (Q16539 whole entry): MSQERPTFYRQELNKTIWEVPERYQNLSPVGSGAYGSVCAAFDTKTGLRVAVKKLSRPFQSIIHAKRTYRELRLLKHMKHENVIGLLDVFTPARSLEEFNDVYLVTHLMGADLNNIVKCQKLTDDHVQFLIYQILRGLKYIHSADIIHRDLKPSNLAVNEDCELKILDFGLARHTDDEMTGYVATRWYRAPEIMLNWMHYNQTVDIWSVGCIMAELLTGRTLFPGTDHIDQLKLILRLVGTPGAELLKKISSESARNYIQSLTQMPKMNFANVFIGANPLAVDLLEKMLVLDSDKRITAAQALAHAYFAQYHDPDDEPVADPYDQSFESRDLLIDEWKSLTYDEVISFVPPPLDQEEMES
The assay is described as follows: p38α biochemical assay (ATP turnover, luminescent detection, Cambrex PKlight). The following applies: p38α kinase; Table 1 Biological Activity. Put shortly:
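In this kinase reaction, p38α used MapkapK2 as phosphorylation substrate at low ATP (1.4 uM final) over 2 hours at 30C, and activity was followed as ATP turnover by luminescence.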
Regarding `Cc1c(F)cccc1NCc1onc(-c2ccc(F)cc2)c1-c1nc(C(=O)NC(C)C)cs1` [Example 1652], the IC50 is more than 1 µM.

`CC(C)NC(=O)c1csc(-c2c(-c3ccc(F)cc3)noc2CNc2cc(F)cc(F)c2)n1` [Example 1653] came in with an IC50 of more than 1 µM.

As for `CC(C)NC(=O)c1csc(-c2c(-c3ccc(F)cc3)noc2CNc2ccc(F)cc2F)n1` [Example 1654], the half-inhibitory concentration (IC50) was more than 1 µM.

`CC(C)NC(=O)c1csc(-c2c(-c3ccc(F)cc3)noc2CNc2ccc3c(c2)CCC3)n1` [Example 1656] displayed an IC50 of more than 1 µM.

For `CC(C)NC(=O)c1csc(-c2c(-c3ccc(F)cc3)noc2CNc2ccccc2C(C)C)n1` [Example 1657], the IC50 was more than 1 µM.

With `CC(=O)c1cccc(NCc2onc(-c3ccc(F)cc3)c2-c2nc(C(=O)NC(C)C)cs2)c1` [Example 1658], the IC50 was not above 1 µM.

Turning to `CC(=O)c1ccc(NCc2onc(-c3ccc(F)cc3)c2-c2nc(C(=O)NC(C)C)cs2)cc1` [Example 1659], the IC50 is more than 1 µM.

`CCc1cccc(C)c1NCc1onc(-c2ccc(F)cc2)c1-c1nc(C(=O)NC(C)C)cs1` [Example 1660] gave an IC50 of more than 1 µM.

Consider `Cc1cc(C)c(NCc2onc(-c3ccc(F)cc3)c2-c2nc(C(=O)NC(C)C)cs2)c(C)c1` [Example 1661], for which the half-maximal inhibitory concentration (IC50) is more than 1 µM.

`CC(C)NC(=O)c1csc(-c2c(-c3ccc(F)cc3)noc2CNc2ccc3c(c2)OCO3)n1` [Example 1662] registered an IC50 of more than 1 µM.

Molecule `COc1ccc(NCc2onc(-c3ccc(F)cc3)c2-c2nc(C(=O)NC(C)C)cs2)c(C)c1` [Example 1663] registered a half-inhibitory concentration (IC50) of more than 1 µM.

With `CCOc1cccc(NCc2onc(-c3ccc(F)cc3)c2-c2nc(C(=O)NC(C)C)cs2)c1` [Example 1664], the 50% inhibitory concentration (IC50) is more than 1 µM.

In turn, `CCOc1ccccc1NCc1onc(-c2ccc(F)cc2)c1-c1nc(C(=O)NC(C)C)cs1` [Example 1665] came in with a concentration for half-maximal inhibition (IC50) of more than 1 µM.

As for `CSc1ccccc1NCc1onc(-c2ccc(F)cc2)c1-c1nc(C(=O)NC(C)C)cs1` [Example 1666], the half-maximal inhibitory concentration (IC50) is more than 1 µM.

On to `Cc1c(Cl)cccc1NCc1onc(-c2ccc(F)cc2)c1-c1nc(C(=O)NC(C)C)cs1` [Example 1667], for which the IC50 was more than 1 µM.

For `Cc1ccc(NCc2onc(-c3ccc(F)cc3)c2-c2nc(C(=O)NC(C)C)cs2)cc1Cl` [Example 1668], the concentration for half-maximal inhibition (IC50) is more than 1 µM.

`CC(C)NC(=O)c1csc(-c2c(-c3ccc(F)cc3)noc2CNc2cnc3ccccc3c2)n1` [Example 1669]: the half-maximal inhibitory concentration (IC50) was more than 1 µM.

Consider `CC(C)NC(=O)c1csc(-c2c(-c3ccc(F)cc3)noc2CNc2cc(F)c(F)cc2F)n1` [Example 1670], for which the half-maximal inhibitory concentration (IC50) was more than 1 µM.

`CC(C)NC(=O)c1csc(-c2c(-c3ccc(F)cc3)noc2CNC2CCCc3ccccc32)n1` (stereo not drawn) [Example 1671] came in with an IC50 of more than 1 µM.

Take `CC(C)NC(=O)c1csc(-c2c(-c3ccc(F)cc3)noc2CNc2ccccc2C(C)(C)C)n1` [Example 1672]: the concentration for half-maximal inhibition (IC50) is more than 1 µM.

Turning to `Cc1cccc(C(C)C)c1NCc1onc(-c2ccc(F)cc2)c1-c1nc(C(=O)NC(C)C)cs1` [Example 1673], the 50% inhibitory concentration (IC50) was more than 1 µM.

On to `CC(C)NC(=O)c1csc(-c2c(-c3ccc(F)cc3)noc2CNc2ccc3ncsc3c2)n1` [Example 1674], for which the IC50 was more than 1 µM.

On to `CC(=O)Nc1ccc(NCc2onc(-c3ccc(F)cc3)c2-c2nc(C(=O)NC(C)C)cs2)cc1` [Example 1675], for which the IC50 is more than 1 µM.

As to `CC(=O)Nc1ccc(NCc2onc(-c3ccc(F)cc3)c2-c2nc(C(=O)NC(C)C)cs2)cn1` [Example 1676], the IC50 was more than 1 µM.

The molecule `CC(C)NC(=O)c1csc(-c2c(-c3ccc(F)cc3)noc2CNc2ccc3c(c2)OCCO3)n1` [Example 1677] had an IC50 of more than 1 µM.

In turn, `CC(C)NC(=O)c1csc(-c2c(-c3ccc(F)cc3)noc2CNc2ccccc2-n2cccc2)n1` [Example 1679] came in with an IC50 of more than 1 µM.

In turn, `CC(C)NC(=O)c1csc(-c2c(-c3ccc(F)cc3)noc2CNc2ccc(C(F)(F)F)cc2)n1` [Example 1680] displayed an IC50 of more than 1 µM.

For the molecule `CC(C)NC(=O)c1csc(-c2c(-c3ccc(F)cc3)noc2CNc2cccc(C(F)(F)F)c2)n1` [Example 1681], the concentration for half-maximal inhibition (IC50) was more than 1 µM.

Regarding `CC(C)NC(=O)c1csc(-c2c(-c3ccc(F)cc3)noc2CNc2ccc(Cl)c(Cl)c2)n1` [Example 1682], the IC50 was more than 1 µM.

The molecule `Cc1cccc(C(C)(C)C)c1NCc1onc(-c2ccc(F)cc2)c1-c1nc(C(=O)NC(C)C)cs1` [Example 1683] came in with a half-inhibitory concentration (IC50) of more than 1 µM.

`CC(C)NC(=O)c1csc(-c2c(-c3ccc(F)cc3)noc2CNc2ccc(N(C)C)cc2)n1` [Example 1684] yielded an IC50 of more than 1 µM.

`CC(C)NC(=O)c1csc(-c2c(-c3ccc(F)cc3)noc2CNc2ccccc2-c2ccccc2)n1` [Example 1685]: the IC50 was more than 1 µM.

`CC(C)NC(=O)c1csc(-c2c(-c3ccc(F)cc3)noc2CNc2ccc(OC(F)(F)F)cc2)n1` [Example 1686] returned an IC50 of more than 1 µM.

In the case of `CC(C)NC(=O)c1csc(-c2c(-c3ccc(F)cc3)noc2CNc2c(C(C)C)cccc2C(C)C)n1` [Example 1687], the IC50 was more than 1 µM.

With `CC(C)NC(=O)c1csc(-c2c(-c3ccc(F)cc3)noc2CNc2ccc(F)cc2C(F)(F)F)n1` [Example 1688], the 50% inhibitory concentration (IC50) is more than 1 µM.

In turn, `CC(C)NC(=O)c1csc(-c2c(-c3ccc(F)cc3)noc2CNc2cc(C(F)(F)F)ccc2F)n1` [Example 1689] displayed a half-maximal inhibitory concentration (IC50) of more than 1 µM.

With `CC(C)NC(=O)c1csc(-c2c(-c3ccc(F)cc3)noc2CNc2ccc(F)c(C(F)(F)F)c2)n1` [Example 1690], the half-inhibitory concentration (IC50) is more than 1 µM.

`CCOc1ccc(OCC)c(NCc2onc(-c3ccc(F)cc3)c2-c2nc(C(=O)NC(C)C)cs2)c1` [Example 1691] had an IC50 of more than 1 µM.

Molecule `CC(C)NC(=O)c1csc(-c2c(-c3ccc(F)cc3)noc2CNc2cc(Cl)c(Cl)c(Cl)c2)n1` [Example 1692] came in with an IC50 of more than 1 µM.

In turn, `CC(C)NC(=O)c1csc(-c2c(-c3ccc(F)cc3)noc2CNc2ccccc2C(=O)c2ccccc2)n1` [Example 1693] registered an IC50 of more than 1 µM.

In turn, `CC(C)NC(=O)c1csc(-c2c(-c3ccc(F)cc3)noc2CNc2ccccc2COc2ccccc2)n1` [Example 1694] returned an IC50 of more than 1 µM.

`COc1ccc(-c2ccccc2)cc1NCc1onc(-c2ccc(F)cc2)c1-c1nc(C(=O)NC(C)C)cs1` [Example 1695]: the concentration for half-maximal inhibition (IC50) was not above 1 µM.

As to `CC(C)NC(=O)c1csc(-c2c(-c3ccc(F)cc3)noc2CNc2ncccc2OCc2ccccc2)n1` [Example 1696], the half-maximal inhibitory concentration (IC50) was more than 1 µM.

For `CC(C)NC(=O)c1csc(-c2c(-c3ccc(F)cc3)noc2CNc2cc(C(F)(F)F)ccc2C(F)(F)F)n1` [Example 1697], the concentration for half-maximal inhibition (IC50) was more than 1 µM.

For `CC(C)NC(=O)c1csc(-c2c(-c3ccc(F)cc3)noc2CNc2cc(C(F)(F)F)cc(C(F)(F)F)c2)n1` [Example 1698], the IC50 was more than 1 µM.

As to `CC(C)NC(=O)c1csc(-c2c(-c3ccc(F)cc3)noc2CNc2ccc(C(F)(F)F)cc2C(F)(F)F)n1` [Example 1699], the 50% inhibitory concentration (IC50) is more than 1 µM.

The molecule `CC(C)NC(=O)c1csc(-c2c(-c3ccc(F)cc3)noc2CBr)n1` [Example 1700] returned an IC50 of more than 1 µM.

In turn, `Cc1nc(-c2ccc(F)cc2)c(-c2nc(C(=O)NC3CCCc4ccccc43)cs2)s1` (stereo not drawn) [Example 1701] displayed a half-maximal inhibitory concentration (IC50) of more than 1 µM.

Take `COc1ccc(NC(=O)c2csc(-c3sc(C)nc3-c3ccc(F)cc3)n2)cc1OC` [Example 1702]: the IC50 is not above 1 µM.

Molecule `Cc1nc(-c2ccc(F)cc2)c(-c2nc(C(=O)O)cs2)s1` [Example 1703] registered a half-maximal inhibitory concentration (IC50) of more than 1 µM.

`Cc1nc(-c2ccc(F)cc2)c(-c2nc(C(=O)N(CCC#N)Cc3ccccc3)cs2)s1` [Example 1704] gave a half-maximal inhibitory concentration (IC50) of more than 1 µM.

Consider `CNC(=O)c1csc(-c2sc(C)nc2-c2ccc(F)cc2)n1` [Example 1705], for which the IC50 was not above 1 µM.

Molecule `CCNC(=O)c1csc(-c2sc(C)nc2-c2ccc(F)cc2)n1` [Example 1706] gave an IC50 not above 1 µM.

In the case of `C#CCNC(=O)c1csc(-c2sc(C)nc2-c2ccc(F)cc2)n1` [Example 1707], the IC50 was not above 1 µM.

In turn, `Cc1nc(-c2ccc(F)cc2)c(-c2nc(C(=O)NCC#N)cs2)s1` [Example 1708] registered an IC50 not above 1 µM.

Take `Cc1nc(-c2ccc(F)cc2)c(-c2nc(C(=O)NC3CC3)cs2)s1` [Example 1709]: the 50% inhibitory concentration (IC50) was more than 1 µM.

Molecule `CCCNC(=O)c1csc(-c2sc(C)nc2-c2ccc(F)cc2)n1` [Example 1710] showed an IC50 of more than 1 µM.

The molecule `Cc1nc(-c2ccc(F)cc2)c(-c2nc(C(=O)NCCN)cs2)s1` [Example 1711] returned an IC50 of more than 1 µM.

Take `Cc1nc(-c2ccc(F)cc2)c(-c2nc(C(=O)NCCO)cs2)s1` [Example 1712]: the IC50 was not above 1 µM.

`Cc1nc(-c2ccc(F)cc2)c(-c2nc(C(=O)NCCC#N)cs2)s1` [Example 1713] displayed an IC50 of more than 1 µM.

Take `Cc1nc(-c2ccc(F)cc2)c(-c2nc(C(=O)NC3CCC3)cs2)s1` [Example 1714]: the concentration for half-maximal inhibition (IC50) was not above 1 µM.

For the molecule `Cc1nc(-c2ccc(F)cc2)c(-c2nc(C(=O)NCC3CC3)cs2)s1` [Example 1715], the IC50 is not above 1 µM.

For `CCC(C)NC(=O)c1csc(-c2sc(C)nc2-c2ccc(F)cc2)n1` (stereo not drawn) [Example 1716], the half-inhibitory concentration (IC50) is more than 1 µM.

`Cc1nc(-c2ccc(F)cc2)c(-c2nc(C(=O)NCC(C)C)cs2)s1` [Example 1717] gave an IC50 of more than 1 µM.

The molecule `Cc1nc(-c2ccc(F)cc2)c(-c2nc(C(=O)NCCCO)cs2)s1` [Example 1718] had a concentration for half-maximal inhibition (IC50) not above 1 µM.

Regarding `Cc1nc(-c2ccc(F)cc2)c(-c2nc(C(=O)NC(C)CO)cs2)s1` (stereo not drawn) [Example 1719], the IC50 is not above 1 µM.

For the molecule `COCCNC(=O)c1csc(-c2sc(C)nc2-c2ccc(F)cc2)n1` [Example 1720], the half-inhibitory concentration (IC50) was more than 1 µM.

In the case of `Cc1nc(-c2ccc(F)cc2)c(-c2nc(C(=O)NC3CCCC3)cs2)s1` [Example 1721], the half-maximal inhibitory concentration (IC50) is not above 1 µM.

`CCCC(C)NC(=O)c1csc(-c2sc(C)nc2-c2ccc(F)cc2)n1` (stereo not drawn) [Example 1722]: the half-maximal inhibitory concentration (IC50) is more than 1 µM.
